US20180250309A1, “METHODS FOR TREATMENT OF MONOCYTE DYSFUNCTION AND CHRONIC INFLAMMATORY MICRO AND MACRO-VASCULAR DISEASES” (THE BOARD OF REGENTS OF THE UNIVERSITY OF TEXAS SYSTEM, priority 2015, published 2018)
Like-named read-outs stand apart in the source and are kept apart here.

Legend:
THP-1 monocytes = assay: Monocyte chemotaxis of metabolically primed THP-1 monocytes towards MCP-1 (modified Boyden chamber); assay type: cell-based, Human; details: for monocyte chemotaxis: primed with glucose and LDL, 1 nM MCP-1, FIG. 2; for normal or baseline responses to chemokines: unprimed, non-pathogenic chemotaxis
Protocol: (§1) Chemotaxis assays are performed using 48-well, modified Boyden chambers (NeuroProbe, Gaithersburg, Md.) as described previously (1). Briefly, monocytes are primed with glucose and LDL in the presence of UA, 23-OHUA or vehicle (0.1% DMSO). Cells are loaded into upper wells of the chemotaxis chamber. Lower wells contain cell media with 1 nM MCP-1 (R&D Systems, Minneapolic, Minn.) or vehicle. A 5 μm polyvinyl pyrrolidone-free polycarbonate filter membrane is layered between the upper and lower chambers, and the chamber is incubated for 1.5 h for THP-1 monocytes at 37° C. and 5% CO2. The membrane is washed and cells removed from the upper side of the filter and fixed with methanol. Transmigrated are stained with 1 μM propidium iodide. Fluorescence intensity, which correlates with cell number is quantified with KODAK Image Station 4000MM (Carestream, Rochester, N.Y.).
Cell Culture/Priming. Human monocytic THP-1 cells (ATCC) were cultured in THP-1 medium (RPMI 1640, 5 mM glucose, 10% fetal bovine serum (FBS), 2% glutamax, 1% penicillin/streptomycin, 1% HEPES, 0.1% β-mercaptoethanol). Cells are spun down at 400 g, 5 minutes at 25° C. and resuspended in media at […]. Following 48 hours at 37° C. and 5% CO2, cells are plated in 12-well cell culture plates. Phytochemicals are solubilized in dimethylsulfoxide (DMSO) and are added to suspended THP-1 cells at concentrations from 0.03 μM to 3 μM. Control cells without phytonutrients are treated with 0.1% DMSO. Cytotoxicity was assessed with a trypan exclusion assay. To induce a metabolically stressed condition (priming), cells were treated with freshly isolated human LDL is added (100 μg/ml) along with D-glucose (20 mM) for 24 hours.
as §1, with “Chemotaxis. Chemotaxis” for “Chemotaxis”, “(Ullevig et al. Redox Biology. 2014 01/03;2:259-66).” for “(1).”, “islayered” for “is layered”

Nox4 = assay: Induction of Nox4 in monocytes under metabolic stress; assay type: cell-based
From the text: The inventor has elucidated the mechanism through which hypercholesterolemia and hyperglycemia promote monocyte dysfunction. Monocyte dysfunction is induced by metabolic disorders via the pathological induction of Nox4.

[1] = Solubility / hydrophilicity relative to ursolic acid; assay type: physicochemical
diabetic atherosclerosis = assay: Dietary supplementation in diabetic mice: monocyte dysfunction, macrophage recruitment, atherosclerosis; assay type: in vivo

SMILES: CC1CCC2(C(=O)O)CCC3(C)C(=CCC4C5(C)CCC(O)C(C)(CO)C5CCC43C)C2C1C (stereo not drawn) [23-OH UA, 3β, 23-dihydroxyurs-12-en-28oic acid]
- monocyte priming by metabolic stress (hypersensitization to chemokine-induced activation) (THP-1 monocytes): inhibit
- monocyte chemotaxis (THP-1 monocytes): reducing monocyte chemotaxis
- normal or baseline responses to chemokines (THP-1 monocytes): do not block or affect normal or baseline responses to chemokines
- induction of Nox4 (Nox4): prevents the induction of Nox4
- monocyte dysfunction (Nox4): prevents
- hydrophilicity relative to UA [1]: more hydrophilic
- solubility compared with ursolic acid [1]: more soluble

SMILES: C[C@H]1[C@H](C)CC[C@]2(C(=O)O)CC[C@]3(C)C(=CC[C@@H]4[C@@]5(C)CC[C@H](O)C(C)(C)[C@@H]5CC[C@]43C)[C@H]12 [UA, Ursolic acid]
- monocyte priming by metabolic stress (hypersensitization to chemokine-induced activation) (THP-1 monocytes): inhibit
- monocyte chemotaxis (THP-1 monocytes): reducing monocyte chemotaxis
- normal or baseline responses to chemokines (THP-1 monocytes): do not block or affect normal or baseline responses to chemokines
- induction of Nox4 (Nox4): prevent the induction of Nox4
- atherosclerosis (diabetic atherosclerosis): potent inhibitor of diabetic atherosclerosis
- monocyte dysfunction and macrophage recruitment (diabetic atherosclerosis): attenuates monocyte dysfunction and macrophage recruitment
- atherosclerosis (diabetic atherosclerosis; listed as ursolic acid): protects diabetic mice from atherosclerosis
